# Experimental data: patent US8143237B2, “Anti-cancer drugs, and uses relating for malignant melanoma and other cancers” (Kasina Laila Innova Pharmaceuticals Private Limited, priority 2009, dated 2012)
# “Also recorded” adds a separate entry of the source. Like-named read-outs stand apart in the source and are kept apart here.
# How the values were obtained:
# [1] = tested on: MCF-7 (ER+) breast tumor cells; assay: MTT based cell proliferation assay, MCF-7; conditions: Homo sapiens, MCF7, read-out: Anti-tumor growth potential (IC50) in MCF-7
# Procedure: (§1) MTT [3-(4,5-dimethylthiazol-2-yl)-2,5-diphenyltetrazolium bromide] incorporation based cell proliferation assay was performed using standard procedure. The cytotoxic efficacies of the various selenopheno triazene compounds (compounds 1 to 16) was evaluated in both human malignant melanoma A375 cells and mouse malignant melanoma B16 F0 cells by MTT cell proliferation assay kit (Roche Applied Sciences, Germany). The assay was carried out according to the instruction provided by the vendor. Briefly, equal numbers of cells was plated in 96-well flat-bottomed plates and were incubated with both DTIC and the test compounds (compounds 1 to 16) at various concentrations for a period of three days. Vehicle control culture wells received only a maximum of 0.5% DMSO. Thereafter, 0.5 mg/ml of MTT reagent was added to each well and the microplate was incubated further for 4 h at 37° C. in presence of 5% CO2. […] After complete solubilization of the formazan crystals, the absorbance was read at 540 nm in a microplate reader (BioRad, USA). […]
# (§2) Anti-tumor growth potential of Compound 1 and DTIC were evaluated in various human tumor cells such as A549 lung tumor cells, DU145 prostate tumor cells, HT29 colon cancer cells and MCF-7 (ER^+) breast tumor cells in vitro, by using MTT based cell proliferation assay as described earlier (example 17). […]
# [2] = tested on: HS.531.sk normal human skin epithelial cells; assay type: cell-based; conditions: 3 days
# Procedure: MTT [3-(4,5-dimethylthiazol-2-yl)-2,5-diphenyltetrazolium bromide] incorporation based cell proliferation assay was performed using standard procedure. The cytotoxic efficacies of the various selenopheno triazene compounds (compounds 1 to 16) was evaluated in both human malignant melanoma A375 cells and mouse malignant melanoma B16 F0 cells by MTT cell proliferation assay kit (Roche Applied Sciences, Germany). The assay was carried out according to the instruction provided by the vendor. Briefly, equal numbers of cells was plated in 96-well flat-bottomed plates and were incubated with both DTIC and the test compounds (compounds 1 to 16) at various concentrations for a period of three days. Vehicle control culture wells received only a maximum of 0.5% DMSO. Thereafter, 0.5 mg/ml of MTT reagent was added to each well and the microplate was incubated further for 4 h at 37° C. in presence of 5% CO2. Finally, the cells were solubilized by adding solubilizing solution and allowed to incubate at 37° C. overnight. After complete solubilization of the formazan crystals, the absorbance was read at 540 nm in a microplate reader (BioRad, USA). The results (mean OD±SD) obtained from quadruplicate wells were used in calculation to determine the inhibition of cell proliferation (50% of inhibitory concentration, IC50) of the test compounds (compounds 1 to 16) (Table 1).
# Next, to check whether the Compound 1 can selectively kill the melanoma cells without or minimally affecting the normal cells, we assessed the comparative efficacy of the Compound 1 and DTIC on cell growth inhibition of HS.531.sk normal human skin epithelial cells. The growth inhibitory effect of the test compound and DTIC was assessed by MTT proliferation assay as described earlier (Example 17). The comparative efficacies of Compound 1 and DTIC in inhibiting the normal skin epithelial cell growth are depicted in FIG. 2.
# [3] = tested on: mouse malignant melanoma B16 F0 cells; assay: MTT based cell proliferation assay, B16 F0 cells; conditions: for IC50: Mus musculus, B16F0, 72 h, MTT, three days incubation, read-out: Cell proliferation inhibition in B16F0 cells, IC50
# Procedure: (§3) The cytotoxic efficacies of the various selenopheno triazene compounds (compounds 1 to 16) was evaluated in both human malignant melanoma A375 cells and mouse malignant melanoma B16 F0 cells by MTT cell proliferation assay kit (Roche Applied Sciences, Germany). The assay was carried out according to the instruction provided by the vendor. Briefly, equal numbers of cells was plated in 96-well flat-bottomed plates and were incubated with both DTIC and the test compounds (compounds 1 to 16) at various concentrations for a period of three days. […] Finally, the cells were solubilized by adding solubilizing solution and allowed to incubate at 37° C. overnight. After complete solubilization of the formazan crystals, the absorbance was read at 540 nm in a microplate reader (BioRad, USA).
# [4] = tested on: Human umbilical vein endothelial cells (HUVEC); assay: In vitro endothelial capillary tube formation assay; assay type: cell-based; conditions: 16 h
# Procedure: In vitro capillary formation assay was performed with Human umbilical vein endothelial cells (HUVEC), cultured on 10 mg/ml basement membrane extract (BME-Cultrex®, R&D Systems, USA) bed. The protocol of in vitro endothelial tube formation assay was the same as described earlier with some modifications (Diana G et al., J. Cell Biol. 1995; Volume 130: 207-215.). Briefly, four hundred microliters of Cultrex was coated at 4° C. in each well of 24-well culture plate and allowed to gel at 37° C. for 1 h. HUVECs were plated at a density of 7.5×10^4 cells per well with 400 μl of DMEM supplemented with 10% fetal bovine serum and 4.5 g/l D-glucose. The cells were then treated with either DTIC or Compound 1 at desired concentration as indicated for 16 hours. Vehicle control cultures received only 0.1% DMSO. Pictures were taken under a Nikon Eclipse TS 100 microscope equipped with a Nikon Coolpix camera.
# B16F0 cells = assay: B16 F0 mouse melanoma cell colony formation assay; assay type: cell-based; conditions: 8 days
# Procedure: Inhibitory efficacy in clone formation of the Compound 1 and DTIC was tested by following the procedure described earlier with some modifications. Briefly, B 16F0 cells were harvested and seeded into 6-well plates (100 cells/ml). The cells were allowed to grow for 4 days and thereafter, the cells were incubated with DMEM containing either 0.1% DMS 0 or 100 μg/ml DTIC or different concentrations (1, 5, 10 or 20 μg/ml) of Compound 1 for further 8 days. Fresh medium containing test agents was replaced at every 24 h. Finally, the wells were washed three times with PBS and fixed in methanol for 15 min. The cells were stained with Giemsa stain and observed under microscope. The image of the stained wells were captured digitally (Kodak Image Station 4000 mM, Carestream Health Inc., New Haven, Conn.) and number of colonies were counted and analyzed by using NIH Image J software.
# [5] = tested on: human malignant melanoma A375 cells; assay: MTT based cell proliferation assay, A375 cells; conditions: A-375, 72 h, three days incubation, read-out: Cell proliferation inhibition in A375 cells, IC50
# Procedure: as §3
# [6] = tested on: DU145 prostate tumor cells; assay: MTT based cell proliferation assay, DU145; conditions: Homo sapiens, DU-145, read-out: Anti-tumor growth potential (IC50) in DU145
# Procedure: as §1, §2
# A549 lung tumor cells = assay: MTT based cell proliferation assay, A549; conditions: Homo sapiens, read-out: Anti-tumor growth potential (IC50) in A549
# Procedure: as §1, §2
# [7] = tested on: B16F0 mouse melanoma cells; assay: Matrigel cell invasion assay; assay type: cell-based; conditions: 24 h
# Procedure: The inhibitory effects of DTIC and compound 1 on invasive ability of B16F0 were tested in cell invasion assay performed with by using Matrigel (BME-Cultrex®, R&D Systems, USA) coated cell culture inserts (Becton Dickinson, USA) with 8 μm-pore membrane. Equal number (fifty thousands) of B16F0 cells were applied in each insert well and allowed to attach for 2 h at 37° C. and in presence of 5% CO2. Thereafter, the cellular invasion through the matrigel layer was performed in presence or absence of test compounds. Either 100 μg/ml of DTIC or 20 μg/ml of Compound 1 was applied in the lower chamber of the invasion assembly. 0.1% DMSO was applied in the vehicle control culture chambers. After 24 h treatment, the matrigel layer containing cells was removed with cotton plug and the invaded cells on the other side of the membrane were fixed with methanol for 5 min and then stained with Giemsa. The stained membrane was mounted on a glass slide and number invaded cells were counted in 20 random fields (20× objective) under a light microscope (Nikon Eclipse TS 100).
SMILES,IC50 [1] [µg/mL],Growth inhibition of HS.531.sk normal human skin epithelial cells ([2]; 25 μg/ml) [%],Growth inhibition of HS.531.sk normal human skin epithelial cells ([2]; 50 μg/ml) [%],"Potency of inhibition relative to Dacarbazine, mouse melanoma B16 cells ([3]; MTT IC50 comparison) [times]",IC50 [3] [µg/mL],Endothelial capillary-like tube formation ([4]; 5 and 10 μg/ml),Reduction in number of B16 colonies (B16F0 cells; at 1 μg/ml) [%],Reduction in number of B16 colonies (B16F0 cells; at 5 μg/ml) [%],Reduction in number of B16 colonies (B16F0 cells; at 10 μg/ml) [%],Reduction in number of B16 colonies (B16F0 cells; at 20 μg/ml) [%],IC50 [5] [µg/mL],IC50 [6] [µg/mL],IC50 (A549 lung tumor cells) [µg/mL],"B16 F0 melanoma tumor cell invasion vs vehicle control ([7]; 20 μg/ml, p=0.0017)",Endothelial capillary-like tube formation ([4]; 100 μg/ml),"inhibition at 100 µg/mL (B16F0 cells; Mus musculus, B16F0, 192 h, at 100 μg/ml, read-out: Inhibition of B16 colony formation (number of colonies)) [%]",B16 F0 melanoma tumor cell invasion vs vehicle control ([7]; 100 μg/ml)
"Cc1[se]c(C(N)=O)cc1/N=N/N(C)C [Compound 1, 4-[(dimethylamino)diazenyl]-5-methylselenophene-2-carboxamide]",7.03,2.33,23.83,5,46.6,inhibition of capillary formation in a dose dependent manner; also recorded: exhibited anti-angiogenic properties,11,35,54,94,9.81,8.97,7.68,significantly reduced; also recorded: significantly inhibited the invasion,,,
"CN(C)N=Nc1[nH]cnc1C(N)=O [DTIC, 5-(3,3-dimethyl-1-trizeno)-imidazole-4-carboxamide, reference compound]",85.1,34.58,43.46,,325,,,,,,70.1,58.5,95,,promoted capillary formation; also recorded: could not inhibit the endothelial capillary formation,35.8,could not significantly inhibit; also recorded: failed to inhibit the tumor cell invasion
